Here are results for 21 compounds from patent US8026367B2, “(R)-arylalkylamino derivatives and pharmaceutical compositions containing them” (Dompe PHA.R.MA S.p.A., priority 2005, dated 2011).

Counter-ions that a name gives are not always drawn.

For series [1], the system named is C5a induced PMN migration. Briefly: Inhibition of C5a induced chemotaxis of human PMNs (microchamber assay). The following applies: compound concentration range between 10^−7 and 10^−8 M, C5a 10^−9 M, 60 min at 37° C. It counts as cell-based. As to the method:
The compounds of the invention of formula (I) were evaluated in vitro for their ability to inhibit chemotaxis of polymorphonucleate leukocytes (hereinafter referred to as PMNs) and monocytes induced by the fractions of the complement C5a and C5a-desArg. For this purpose, to isolate the PMNs from heparinized human blood, taken from healthy adult volunteers, mononucleates were removed by means of sedimentation on dextran (according to the procedure disclosed by W. J. Ming et al., J. Immunol., 138, 1469, 1987) and red blood cells by a hypotonic solution. The cell vitality was calculated by exclusion with Trypan blue, whilst the ratio of the circulating polymorphonucleates was estimated on the cytocentrifugate after staining with Diff Quick.
Human recombinant fractions C5a and C5a-desArg (Sigma) were used as stimulating agents in the chemotaxis experiments, giving practically identical results.
The lyophilized C5a was dissolved in a volume of HBSS containing 0.2% bovin serum albumin BSA so thus to obtain a stock solution having a concentration of 10^−5 M to be diluted in HBSS to a concentration of 10^−9 M, for the chemotaxis assays.
In the chemotaxis experiments, the PMNs were incubated with the compounds of the invention of formula (I) for 15′ at 37° C. in an atmosphere containing 5% CO2.
The chemotactic activity of the C5a was evaluated on human circulating polymorphonucleates (PMNs) resuspended in HBSS at a concentration of 1.5×10^6 PMNs per mL.
During the chemotaxis assay (according to W. Falket et al., J. Immunol. Methods, 33, 239, 1980) PVP-free filters with a porosity of 5 μm and microchambers suitable for replication were used.
The compounds of the invention in formula (I) were evaluated at a concentration ranging between 10^−7 and 10^−10 M; for this purpose they were added, at the same concentration, both to the lower pores and the upper pores of the microchamber. The wells in the lower part contain the solution of C5a or the simple carrier, those in the upper part contain the suspension of PMNs.
Inhibition of C5a-induced chemotactic activity by the individual compounds of the invention of formula (I) was evaluated by incubating the microchamber for the chemotaxis for 60 min at 37° C. in an atmosphere containing 5% CO2.
By way of example, the inhibition data of the chemotaxis of PMN (concentration range between 10^−7 and 10^−8 M) of some representative compounds of the invention are reported in Table 1.

What is called melting point is the temperature, or range, at which the solid turns liquid. Compound `C[C@@H](NC(=O)c1cccnc1)c1ccc(OS(=O)(=O)C(F)(F)F)cc1` (as salt: methanesulfonate) [Compound 15, 4-{[(1R)-1-(pyridine-3-ylcarbonyl)amino]ethyl]}phenyl trifluoromethanesulfonate] yielded a melting point of 120 to 122 °C.
As for `C[C@@H](NS(=O)(=O)c1ccccc1)c1ccc(OS(=O)(=O)C(F)(F)F)cc1` [Compound 1, 4-{(1R)-1-[(phenylsulfonyl)amino]ethyl}phenyl trifluoromethanesulfonate], the “% inhibition C5a induced PMN migration” value in series [1] worked out at 50 ± 1 %.
Still for that read-out and setting: in the case of `C[C@@H](NS(=O)(=O)c1ccccc1)c1cccc(C(=O)c2ccccc2)c1` [Compound 2, N-[(1R)-1-(3-benzoylphenyl)ethyl]benzenesulfonamide] it was 59 ± 10%; in that of `C[C@@H](NS(=O)(=O)c1cccnc1)c1ccc(OS(=O)(=O)C(F)(F)F)cc1` [Compound 3, 4-{(1R)-1-[(pyridine-3-ylsulfonyl)amino]ethyl}phenyl trifluoromethanesulfonate], 47 ± 7%; in that of `C[C@@H](NS(C)(=O)=O)c1cccc(C(=O)c2ccccc2)c1` [Compound 4, N-[(1R)-1-(3-benzoylphenyl)ethyl]methanesulfonamide], 48 ± 8%.
Regarding `C[C@@H](NS(=O)(=O)c1cccs1)c1cccc(C(=O)c2ccco2)c1` [Compound 5, N-[(1R)-1-[3-(2-furoyl)phenyl]ethyl}thiophene-2-sulfonamide], the melting point lay within 105 to 106 °C. Moreover, the “% inhibition C5a induced PMN migration” value in series [1] is 60 ± 8%.
Consider `C[C@@H](NS(C)(=O)=O)c1cccc(C(=O)c2ccco2)c1` [Compound 6, N-[(1R)-1-[3-(2-furoyl)phenyl]ethyl}methanesulfonamide], for which the “% inhibition C5a induced PMN migration” value in series [1] is recorded as 52 ± 7%.
For `C[C@@H](NS(=O)(=O)c1cccs1)c1ccc(OS(=O)(=O)C(F)(F)F)cc1` [Compound 7, 4-{(1R)-1-[(thien-2-ylsulfonyl)amino]ethyl}phenyl trifluoromethanesulfonate], the “% inhibition C5a induced PMN migration” value in series [1] amounted to 41 ± 8%.
`C[C@@H](NS(=O)(=O)c1cccs1)c1cccc(C(=O)c2ccccc2)c1` [Compound 8, N-[(1R)-1-(3-benzoylphenyl]ethyl}thiophene-2-sulfonamide]: the “% inhibition C5a induced PMN migration” value in series [1] was 55 ± 14%.
Take `COC(=O)c1ccc(S(=O)(=O)N[C@H](C)c2cccc(C(=O)c3ccccc3)c2)o1` [Compound 10, methyl 5-({[(1R)-1-(3-benzoylphenyl)ethyl]amino}sulfonyl)-2-furoate]: the “% inhibition C5a induced PMN migration” value in series [1] amounted to 72 ± 6%.
Regarding `C[C@@H](NS(=O)(=O)c1ccc(C(=O)O)o1)c1cccc(C(=O)c2ccccc2)c1` [Compound 11, 5-({[(1R)-1-(3-benzoylphenyl)ethyl]amino}sulfonyl)-2-furoic acid], the “% inhibition C5a induced PMN migration” value in series [1] came to 40 ± 4%.
Turning to `CC(C)[C@@H](NS(C)(=O)=O)c1ccc(OS(=O)(=O)C(F)(F)F)cc1` [Compound 12, 4-{(1R)-2-methyl-1-[(methylsulfonyl)amino]propyl}phenyl trifluoromethanesulfonate], the “% inhibition C5a induced PMN migration” value in series [1] was 40 ± 5%.
As to `C[C@@H](NS(C)(=O)=O)c1ccc(C(C)(C)S(=O)(=O)c2ccccc2)cc1` [Compound 13, N-((1R)-1-{4-[1-methyl-1-(phenylsulfonyl)ethyl]phenyl}ethyl)methanesulfonamide], the “% inhibition C5a induced PMN migration” value in series [1] came out at 64 ± 8%.
For `CC(C)C(=O)N[C@H](C)c1ccc(OS(=O)(=O)C(F)(F)F)cc1` [Compound 14, 4-[(1R)-1-(isobutyrylamino)ethyl]phenyl trifluoromethanesulfonate], in series [1], the “% inhibition C5a induced PMN migration” value stood at 60 ± 8%.
Take `C[C@@H](NC(=O)c1cccnc1)c1ccc(OS(=O)(=O)C(F)(F)F)cc1` [Compound 15, 4-{[(1R)-1-(pyridine-3-ylcarbonyl)amino]ethyl]}phenyl trifluoromethanesulfonate]: in series [1], the “% inhibition C5a induced PMN migration” value came to 46 ± 6%.
As to `C[C@@H](NC(=O)c1ccccc1)c1cccc(C(=O)c2ccccc2)c1` [Compound 16, N-[(1R)-1-(3-benzoylphenyl)ethyl]benzamide], the “% inhibition C5a induced PMN migration” value in series [1] is on record as 49 ± 5 %.
Regarding `C[C@@H](NC(=O)c1ccco1)c1cccc(C(=O)c2ccccc2)c1` [Compound 17, N-[(1R)-1-(3-benzoylphenyl)ethyl]-2-furamide], the “% inhibition C5a induced PMN migration” value in series [1] came to 63 ± 10%.
`C[C@@H](NC(=O)C1CCC1)c1cccc(C(=O)c2ccccc2)c1` [Compound 18, N-[(1R)-1-(3-benzoylphenyl)ethyl]cyclobutanecarboxamide] yielded a melting point of 90 to 93 °C. In series [1], the “% inhibition C5a induced PMN migration” value is listed as 57 ± 4%.
Consider `C[C@@H](NC(=O)CCCN1CCCCC1)c1ccc(OS(=O)(=O)C(F)(F)F)cc1` [Compound 19, N-[(1R)-1-(4-trifluoromethanesulfonyloxy)phenylethyl]-4-piperidin-1-ylbutanamide], for which, in series [1], the “% inhibition C5a induced PMN migration” value is 54 ± 17%.
Regarding `C[C@@H](NC(=O)CCCN1CCCC1)c1ccc(OS(=O)(=O)C(F)(F)F)cc1` [Compound 20, 4-{(1R)-1-[(4-pyrrolidin-1-ylbutanoyl)amino]ethyl]}phenyl trifluoromethanesulfonate], the “% inhibition C5a induced PMN migration” value in series [1] came to 47 ± 1%.
`C[C@@H](Nc1nc(C(F)(F)F)cs1)c1cccc(C(=O)c2ccccc2)c1` [Compound 21]: the “% inhibition C5a induced PMN migration” value in series [1] is recorded as 42 ± 5%.
